Results as given in paper PMC6010127, “Sulfonamide inhibition studies of two β-carbonic anhydrases from the ascomycete fungus Sordaria macrospora, CAS1 and CAS2” (Journal of Enzyme Inhibition and Medicinal Chemistry, 2018).

What was measured:
CAS1 [1] = target: T1, CAS1 (Sordaria macrospora, UniProt F7VW42); experiment: stopped-flow CO2 hydration assay; format: biochemical
T1 construct: gene SMAC_03420; recombinant, obtained in-house
T1 sequence (F7VW42 1-234): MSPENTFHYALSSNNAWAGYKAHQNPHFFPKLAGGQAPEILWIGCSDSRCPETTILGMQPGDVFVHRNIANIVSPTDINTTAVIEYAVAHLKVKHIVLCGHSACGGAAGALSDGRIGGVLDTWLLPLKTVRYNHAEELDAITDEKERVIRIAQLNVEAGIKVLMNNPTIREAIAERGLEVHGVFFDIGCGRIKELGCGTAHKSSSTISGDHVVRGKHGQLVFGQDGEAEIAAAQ

CAS2 [2] = target: T2, CAS2 (Sordaria macrospora, UniProt C1L336); experiment: stopped-flow CO2 hydration assay; format: biochemical; conditions: read-out: KI^a (nM) / CAS2^c / β
T2 construct: recombinant, obtained in-house
T2 sequence (C1L336 54-284): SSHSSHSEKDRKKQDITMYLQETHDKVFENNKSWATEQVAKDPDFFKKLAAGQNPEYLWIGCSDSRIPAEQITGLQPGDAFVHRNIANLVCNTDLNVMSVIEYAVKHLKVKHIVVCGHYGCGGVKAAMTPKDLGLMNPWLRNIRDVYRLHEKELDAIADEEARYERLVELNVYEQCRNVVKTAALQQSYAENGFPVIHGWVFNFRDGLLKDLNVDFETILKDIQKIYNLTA

CAS1 [3] = target: T1, CAS1; experiment: biochemical; design: stopped-flow CO2 hydration assay, phenol red 557 nm, pH 8.3, 15 min preincubation; KI by Cheng-Prusoff; conditions: read-out: KI^a (nM) / CAS1^c / β
Experimental: (§1) An Applied Photophysics stopped-flow instrument has been used for assaying the CA catalysed CO2 hydration activity. Phenol red (at a concentration of 0.2 mM) has been used as indicator, working at the absorbance maximum of 557 nm, with 20 mM TRIS (pH 8.3) as buffer, and 20 mM Na2SO4 (for maintaining constant the ionic strength), following the initial rates of the CA-catalysed CO2 hydration reaction for a period of 10–100 s. The CO2 concentrations ranged from 1.7 to 17 mM for the determination of the kinetic parameters and inhibition constants. For each inhibitor at least six traces of the initial 5–10% of the reaction have been used for determining the initial velocity. The uncatalysed rates were determined in the same manner and subtracted from the total observed rates. Stock solutions of inhibitor (0.1 mM) were prepared in distilled-deionized water and dilutions up to 0.01 nM were done thereafter with the assay buffer. Inhibitor and enzyme solutions were preincubated together for 15 min at room temperature prior to assay, in order to allow for the formation of the E–I complex. The inhibition constants were obtained by non-linear least-squares methods using PRISM 3 and the Cheng–Prusoff equation, as reported earlier, and represent the mean from at least three different determinations. All CA isofoms were recombinant ones obtained in-house as reported earlier[2]^,[9].

CAS2 [4] = target: T2, CAS2; experiment: biochemical; design: stopped-flow CO2 hydration assay, phenol red 557 nm, pH 8.3, 15 min preincubation; KI by Cheng-Prusoff
Experimental: as §1, with “For each inhibitor at least six traces of the initial 5–10% of the reaction have been used for determining the initial velocity.” left out

[5] = read-out: KI^a (nM) / CAS1^c / β
[6] = read-out: KI^a (nM) / CAS2^c / β, inhibitor

| SMILES | Ki (CAS2 [2]) [nM] | Ki (CAS1 [3]) [nM] | Ki (CAS2 [4]) [nM] | also measured |
| --- | --- | --- | --- | --- |
| Nc1ccc(S(N)(=O)=O)cc1 [compound 2, sulfanilamide] | – | – | – | Ki (CAS1 [1]): 144 nM |
| CCN1CCCC1CNC(=O)c1cc(S(N)(=O)=O)ccc1OC (stereo not shown) [SLP, sulpiride] | 670 | 1720 | – | – |
| Nc1ccc(S(N)(=O)=O)cc1Br [compound 9, bromosubstituted derivative 9] | – | – | – | Ki (CAS1 [1]; pH 8.3, 20 mM TRIS, 20 mM Na2SO4, CO2 1.7-17 mM, 15 min preincubation at room temperature, read-out: KI^a (nM) / CAS1^c / β): 580 nM |
| NS(=O)(=O)c1nnc(NS(=O)(=O)c2ccccc2)s1 [BZA, benzolamide] | 410 | 2110 | – | – |
| Nc1ccc(S(N)(=O)=O)cc1F [compound 7] | – | – | 7360 | – |
| Nc1ccc(S(N)(=O)=O)cc1Br [compound 9] | – | – | – | Ki (CAS2 [4]; [6]): 12000 nM |
| NS(=O)(=O)c1ccc(S(=O)(=O)Nc2cccc3c(Cl)c[nH]c23)cc1 [IND, indisulam] | 216 | 4240 | – | – |
| Cn1nc(S(N)(=O)=O)sc1=N [compound 14] | – | – | – | Ki (CAS1 [3]; inhibitor): 7210 nM; Ki (CAS2 [4]; [6]): 280 nM |
| CC1(C)O[C@@H]2[C@@H](CO[C@@]3(COS(N)(=O)=O)OC(C)(C)O[C@@H]23)O1 [TPM, topiramate] | 673 | – | – | Ki (CAS1 [1]; [5]): 414 nM |
| Cc1ccc(S(N)(=O)=O)cc1 [compound 4, tosylamide] | – | – | – | Ki (CAS1 [1]; [5]): 47.1 nM |
| Cc1ccc(S(N)(=O)=O)cc1 [compound 4] | – | – | 6900 | – |
| NS(=O)(=O)c1ccc(N2CCCCS2(=O)=O)cc1 [SLT, sulthiame] | 496 | 3210 | – | – |
| Nc1ccc(S(N)(=O)=O)cc1Cl [compound 8, 3-chlorosulfanilamide] | – | – | – | Ki (CAS1 [1]; [5]): 79.6 nM |
| NS(=O)(=O)c1cc2c(cc1Cl)NCNS2(=O)=O [HCT] | – | 3350 | 6680 | – |
| Nc1ccc(S(N)(=O)=O)cc1F [compound 7, 3-fluorosulfanilamide] | – | – | – | Ki (CAS1 [1]; [5]): 43.2 nM |
| CC(=O)N=c1sc(S(N)(=O)=O)nn1C [MZA, methazolamide] | – | – | – | Ki (CAS1 [1]; [5]): 421 nM |

Further lines, with some results ahead:

| Ki (CAS2 [2]) [nM] | Ki (CAS1 [3]) [nM] | Ki (CAS2 [4]) [nM] | SMILES | also measured |
| --- | --- | --- | --- | --- |
| 739 | – | – | CCN[C@H]1CN(CCCOC)S(=O)(=O)c2sc(S(N)(=O)=O)cc21 [BRZ, brinzolamide] | Ki (CAS1 [1]; [5]): 451 nM |
| – | 4430 | 3730 | Cc1onc(-c2ccccc2)c1-c1ccc(S(N)(=O)=O)cc1 [VLX] | – |
| – | – | 9120 | Nc1ccc(S(N)(=O)=O)cc1Cl [compound 8] | – |
| 857 | 2510 | – | Cc1ccc(-c2cc(C(F)(F)F)nn2-c2ccc(S(N)(=O)=O)cc2)cc1 [CLX, celecoxib] | – |
| 48.1 | 8650 | – | Nc1nnc(S(N)(=O)=O)s1 [compound 13, 5-amino-1,3,4-thiadiazole-2-sulfonamide] | – |
| – | 1220 | 5790 | NS(=O)(=O)c1cc(Cl)c(Cl)c(S(N)(=O)=O)c1 [DCP] | – |
| – | 5280 | 7070 | O=C1NS(=O)(=O)c2ccccc21 [SAC] | – |
| 92.5 | 4520 | – | NS(=O)(=O)c1ccc(CO)cc1 [compound 16, 4-hydroxymethyl-benzenesulfonamide] | – |
| – | 1820 | 1890 | NS(=O)(=O)Cc1noc2ccccc12 [ZNS] | – |
